In patent publication US11089783B2, “2-(het)aryl-substituted fused heterocycle derivatives as pesticides” (Bayer Aktiengesellschaft, priority 2017, dated 2021):

Key:
Format in all cases: in vivo
Myzus persicae [1] = assay: Myzus persicae spray test (MYZUPE), Chinese cabbage leaf discs; conditions: Myzus persicae, foliar, 120 h; for pest or weed control at 100 g/ha / pest or weed control at 20 g/ha: 5 days (5 dat), read-out: efficacy
Description: (§1) [table] To produce a suitable active ingredient formulation, 1 part by weight of active ingredient is dissolved with the specified parts by weight of solvent and made up to the desired concentration with water containing an emulsifier concentration of 1000 ppm. To produce further test concentrations, the formulation is diluted with emulsifier-containing water. Discs of Chinese cabbage leaves (Brassica pekinensis) infested by all stages of the green peach aphid (Myzus persicae) are sprayed with an active ingredient formulation of the desired concentration. After 5 days, the efficacy in % is determined. 100% means that all the aphids have been killed; 0% means that no aphids have been killed. [table] To produce an appropriate active ingredient formulation, 1 part by weight of active ingredient is dissolved with the stated parts by weight of solvent and made up with water containing an emulsifier concentration of 1000 ppm until the desired concentration is attained. For production of further test concentrations, the mixture is diluted with emulsifier-containing water. Discs of chinese cabbage leaves (Brassica pekinensis) infested by all stages of the green peach aphid (Myzus persicae) are sprayed with an active ingredient formulation of the desired concentration. After the desired time, the efficacy in % is determined. 100% means that all aphids have been killed; 0% means that no aphids have been killed.

Phaedon cochleariae [2] = assay: Phaedon cochleariae spray test (PHAECO S), cabbage leaves; conditions: 20 ppm, 7 dat
Description: (§2) [table] To produce an appropriate active ingredient formulation, 1 part by weight of active ingredient is dissolved with the specified parts by weight of solvent and made up with water containing an emulsifier concentration of 1000 ppm until the desired concentration is attained. To produce further test concentrations, the mixture is diluted with emulsifier-containing water. If addition of ammonium salts or/and penetrants is required, these are each added to the preparation solution in a concentration of 1000 ppm. Cabbage leaves (Brassica oleracea) are sprayed with an active ingredient formulation of the desired concentration and populated with larvae of the mustard beetle (Phaedon cochleariae). After the desired time, the kill in % is determined. 100% means that all beetle larvae have been killed; 0% means that no beetle larvae have been killed.

Nezara viridula = Nezara viridula spray test (NEZARA / NEZAVI); conditions: 4 dat; for % efficacy: 500 g/ha
Description: as §2, with “ppm. Barley plants (Hordeum vulgare) infected with larvae of the southern green shield bug (Nezara viridula)” for “ppm. Cabbage leaves (Brassica oleracea)”, “desired concentration.” for “desired concentration and populated with larvae of the mustard beetle (Phaedon cochleariae).”, “the efficacy” for “the kill”, “all bugs” for “all beetle larvae”, “no bugs” for “no beetle larvae”

Myzus persicae [3] = assay: Myzus persicae oral test; conditions: 120 h, after 5 days, read-out: efficacy
Description: [table] To produce a suitable active ingredient formulation, 1 part by weight of active ingredient is dissolved with the stated parts by weight of solvent and made up to the desired concentration with water. 50 μl of the active ingredient preparation are transferred into microtitre plates and made up to a final volume of 200 μl with 150 μl of IPL41 insect medium (33%+15% sugar). Subsequently, the plates are sealed with parafilm, which a mixed population of green peach aphids (Myzus persicae) within a second microtitre plate is able to puncture and imbibe the solution. After 5 days, the efficacy in % is determined. 100% means that all the aphids have been killed; 0% means that no aphids have been killed.

Meloidogyne incognita = Meloidogyne incognita test (MELGIN); conditions: 20 ppm, 14 days (14 dat)
Description: [table] To produce a suitable active ingredient formulation, 1 part by weight of active ingredient is mixed with the stated amount of solvent and the concentrate is diluted to the desired concentration with water. Vessels are filled with sand, active ingredient solution, an egg/larvae suspension of the southern root-knot nematode (Meloidogyne incognita) and lettuce seeds. The lettuce seeds germinate and the plants develop. The galls develop on the roots. After 14 days, the nematicidal efficacy in % is determined by the formation of galls. 100% means that no galls were found; 0% means that the number of galls on the treated plants corresponds to the untreated control. [table] To produce an appropriate active ingredient formulation, 1 part by weight of active ingredient is mixed with the specified amount of solvent and the concentrate is diluted to the desired concentration with water. Vessels are filled with sand, active ingredient solution, an egg/larvae suspension of the southern root-knot nematode (Meloidogyne incognita) and lettuce seeds. The lettuce seeds germinate and the plants develop. The root-knots develop on the roots. After the desired time, the nematicidal effect is determined from the formation of root-knots in %. 100% means that no root-knots were found; 0% means that the number of root-knots on the treated plants corresponds to that on the untreated control.

Lucilia cuprina = Lucilia cuprina test; conditions: 48 h, L1 larvae, after 2 days, read-out: efficacy (kill)
Description: Solvent: dimethyl sulfoxide To produce a suitable active ingredient formulation, 10 mg of active ingredient are mixed with 0.5 ml of dimethyl sulfoxide, and the concentrate is diluted with water to the desired concentration. About 20 L1 larvae of the Australian sheep blowfly (Lucilia cuprina) are transferred into a test vessel containing minced horsemeat and the active ingredient formulation of the desired concentration. After 2 days, the kill in % is determined. 100% means that all the larvae have been killed; 0% means that no larvae have been killed.

Nilaparvata lugens = Nilaparvata lugens spray test (NILALU); conditions: 4 dat; for % efficacy / Emax at 20 g/ha: 20 g/ha
Description: [table] To produce an appropriate active ingredient formulation, 1 part by weight of active ingredient is dissolved with the specified parts by weight of solvent and made up with water containing an emulsifier concentration of 1000 ppm until the desired concentration is attained. To produce further test concentrations, the mixture is diluted with emulsifier-containing water. If addition of ammonium salts or/and penetrants is required, these are each added to the preparation solution in a concentration of 1000 ppm. Rice plants (Oryza sativa) are sprayed with an active ingredient formulation of the desired concentration and then populated with larvae of the brown planthopper (Nilaparvata lugens). After the desired time, the efficacy in % is determined. 100% means that all planthoppers have been killed; 0% means that no planthoppers have been killed.

Phaedon cochleariae [4] = assay: Phaedon cochleariae spray test (PHAECO), Chinese cabbage leaf discs; conditions: for pest or weed control at 100 g/ha: 7 days (7 dat), read-out: efficacy
Description: as §1, with “pekinensis)” for “pekinensis) infested by all stages of the green peach aphid (Myzus persicae)”, “concentration and, after drying, populated with larvae of the mustard beetle (Phaedon cochleariae).” for “concentration.”, “7” for “5”, “beetle larvae” for “aphids”

Aphis gossypii = Aphis gossypii spray test (APHIGO), cotton plants; conditions: Aphis gossypii, 144 h, 6 dat, read-out: % efficacy
Description: as §2, with “Cotton plants (Gossypium hirsutum) severely infested by the cotton aphid (Aphis gossypii)” for “Cabbage leaves (Brassica oleracea)”, “concentration.” for “concentration and populated with larvae of the mustard beetle (Phaedon cochleariae).”, “aphids” for “beetle larvae”

Myzus persicae [5] = assay: Myzus persicae spray test (MYZUPE S), bell pepper plants; conditions: 144 h, 4 ppm, 6 dat, read-out: % efficacy
Description: [table] To produce an appropriate active ingredient formulation, 1 part by weight of active ingredient is dissolved with the specified parts by weight of solvent and made up with water containing an emulsifier concentration of 1000 ppm until the desired concentration is attained. To produce further test concentrations, the mixture is diluted with emulsifier-containing water. If addition of ammonium salts or/and penetrants is required, these are each added to the preparation solution in a concentration of 1000 ppm. Bell pepper plants (Capsicum annuum) severely infested by the green peach aphid (Myzus persicae) are treated by spraying with the active ingredient formulation in the desired concentration. After the desired time, the kill in % is determined. 100% means that all the animals have been killed; 0% means that no animals have been killed.

Tetranychus urticae = Tetranychus urticae spray test, OP-resistant (TETRUR); conditions: Tetranychus urticae, 144 h; TETRUR, 100 g/ha, 6 dat; read-out: % efficacy
Description: [table] To produce a suitable active ingredient formulation, 1 part by weight of active ingredient is dissolved with the specified parts by weight of solvent and made up to the desired concentration with water containing an emulsifier concentration of 1000 ppm. To produce further test concentrations, the formulation is diluted with emulsifier-containing water. Discs of bean leaves (Phaseolus vulgaris) infested with all stages of the greenhouse red spider mite (Tetranychus urticae) are sprayed with an active ingredient formulation of the desired concentration. After 6 days, the efficacy in % is determined. 100% means that all the spider mites have been killed; 0% means that no spider mites have been killed.

Myzus persicae [6] = assay: Myzus persicae drench test (MYZUPE D), savoy cabbage plants; conditions: soil, 240 h, 10 dat, read-out: % efficacy
Description: [table] To produce an appropriate active ingredient formulation, 1 part by weight of active ingredient is mixed with the specified amounts of solvent and emulsifier and the concentrate is diluted to the desired concentration with water, it being necessary to take into account the volume of soil into which drenching is effected. It should be ensured that a concentration of 40 ppm of emulsifier in the soil is not exceeded. For production of further test concentrations, the mixture is diluted with water. Savoy cabbage plants (Brassica oleracea) in soil pots, infested by all stages of the green peach aphid (Myzus persicae), are drenched with an active ingredient formulation of the desired concentration. After the desired time, the efficacy in % is determined. 100% means that all the aphids have been killed; 0% means that no aphids have been killed.

[7] = Phaedon cochleariae, foliar, 168 h
[8] = Nilaparvata lugens, 96 h, read-out: % efficacy
[9] = Phaedon cochleariae, foliar, 168 h, PHAECO, 20 g/ha, 7 dat

Row | SMILES | pest or weed control at 100 g/ha (Myzus persicae [1]) [%] | % efficacy (Phaedon cochleariae [2]) [%] | % efficacy (Nezara viridula) [%] | pest or weed control at 0.8 ppm (Myzus persicae [3]) [%] | efficacy (nematicidal, gall formation) (Meloidogyne incognita) [%] | pest or weed control at 100 ppm (Lucilia cuprina) [%] | % efficacy (Nilaparvata lugens) [%] | % efficacy (Phaedon cochleariae [4]; PHAECO, 0.8 g/ha, 7 dat) [%] | % efficacy (Phaedon cochleariae [4]; PHAECO, 4 g/ha, 7 dat) [%] | pest or weed control at 100 g/ha (Phaedon cochleariae [4]; [7]) [%] | pest or weed control at 20 g/ha (Myzus persicae [1]) [%] | Emax at 4 ppm (Aphis gossypii) [%] | Emax at 4 ppm (Myzus persicae [5]) [%] | Emax at 20 g/ha (Nilaparvata lugens; [8]) [%] | Emax at 100 g/ha (Nilaparvata lugens; [8]) [%] | percent efficacy (larval mortality) at a fixed application rate at 20 g/ha (Phaedon cochleariae [4]; [9]) [%] | other results
1 | CCS(=O)(=O)c1ccc(C(N)=O)nc1-c1nc2cc(C(F)(F)C(F)(F)F)nnc2n1C [Example I-02] | 100 | 100 | 90 | 100 | 90 | 100 | 90 | 83 | 100 | 100 |  |  |  |  |  |  | 
2 | CCS(=O)(=O)c1ccc(C(=O)NC2CC2)nc1-c1nc2cc(C(F)(F)C(F)(F)F)nnc2n1C [Example I-03] | 100 |  |  | 100 |  | 100 |  |  |  | 100 | 90 | 95 | 100 | 80 | 100 | 100 | 
3 | CCS(=O)(=O)c1ccc(C(N)=O)nc1-c1nc2cc(C(F)(F)C(F)(F)F)nnc2n1C [drawing 40, reference compound] |  | 0 | 0 |  | 0 |  | 50 | 0 | 33 |  |  |  |  |  |  |  | 
4 | CCS(=O)(=O)c1ccc(C(=O)NC2CC2)nc1-c1nc2cc(C(F)(F)F)nnc2n1C [reference compound] |  |  |  |  |  |  |  |  |  | 33 | 0 | 0 | 0 | 0 | 0 | 33 | 
5 | CCS(=O)(=O)c1ccc(NC(=O)N(C)C)nc1-c1nc2cc(C(F)(F)F)nnc2n1C [reference compound] |  |  |  |  |  |  |  |  |  |  |  | 15 |  |  |  |  | Emax at 4 g/ha (Myzus persicae [1]; MYZUPE, 4 g/ha, 5 dat, read-out: % efficacy): 0%; Emax at 20 ppm (Phaedon cochleariae [2]; Phaedon cochleariae, 168 h, read-out: % efficacy): 20%; Emax at 4 g/ha (Nezara viridula; Nezara viridula, 96 h, 4 g/ha, read-out: % efficacy): 0%; Emax at 100 g/ha (Tetranychus urticae): 0%; Emax at 4 g/ha (Nilaparvata lugens; Nilaparvata lugens, 96 h, 4 g/ha, read-out: % efficacy): 0%
6 | CNC(=O)Nc1ccc(S(C)(=O)=O)c(-c2nc3cc(C(F)(F)F)nnc3n2C)n1 [reference compound] |  |  |  |  |  |  |  |  |  | 33 |  |  |  |  |  |  | Emax at 0.8 ppm (Myzus persicae [6]; 0.8 ppm): 0%; Emax at 4 ppm (Myzus persicae [6]; 4 ppm): 0%; Emax at 20 g/ha (Nezara viridula; Nezara viridula, 96 h, 20 g/ha, read-out: % efficacy): 0%; Emax at 20 ppm (Aphis gossypii; 20 ppm): 0%; Emax at 20 g/ha (Phaedon cochleariae [4]; Phaedon cochleariae, foliar, 168 h, PHAECO, 20 g/ha, 7 dat, read-out: % efficacy): 0%
